Source: patent US20080299123A1, “TREATMENT OF CHEMOTHERAPY- OR RADIOTHERAPY-RESISTANT TUMORS” (Deutsches Krebsforschungszentrum Stiftung des offentlichen …, priority 2006, published 2008)
Entries after “also recorded” stand apart in the source; their conditions may differ.

What was measured:
L1 = experiment: siRNA-mediated knockdown of L1 in OVMz cells (FACS, Western blot); type: cell-based, human; conditions: 48 hours after transfection
Description: (A) OVMz cells were transfected with L1-specific siRNA or control siRNA. After 48 hrs, cells were stained with mAb L1-11A to L1 followed by PE-conjugated anti-mouse IgG antibody and subjected to FACS analysis. (B) Cell lysates were analyzed by Western blot analysis using antibodies to the L1 ectodomain (mAb L1-11A) or the cytoplasmic portion (pcytL1). The L1-32 fragment is the ADAM10-mediated ectodomain cleavage fragment.
(§1) For quantification of DNA fragmentation, supernatants were centrifuged at 200×g. The cell pellet was washed once in PBS (pH 7.4) and lysed in a hypotonic lysis buffer (0.1% sodium citrate, 0.1% Triton X-100, 50 μg/ml propidiumiodite) at 4° C. overnight. The nuclei were then analyzed for DNA content by flow cytometry. The staining of cells for flow cytometry with mAbs and PE-conjugated secondary antibodies has been described. Cells were analysed with a FACScan using Cellquest or FlowJo software from Becton Dickinson (Heidelberg, Germany).
(§2) SDS-PAGE under reducing conditions and transfer of separated proteins to Immobilon membranes using semi-dry blotting was described before. […] Eluted fractions were neutralized and an aliquot of the samples was analyzed by SDS-PAGE. […]
Transfection of siRNAs was described before. […] Cells were transfected with annealed siRNAs using Oligofectamine (Life Technologies) and analyzed after the indicated time points.

[1] = test system: ERK and FAK phosphorylation; experiment: Phosphorylation of ERK and FAK in L1-depleted OVMz cells; type: cell-based
Description: (C) Phosphorylation of ERK1/2, FAK, and PAK 1 was analyzed in L1-siRNA depleted cell. (D and E) analysis of apoptosis by Nicoletti staining.
(§3) SDS-PAGE under reducing conditions and transfer of separated proteins to Immobilon membranes using semi-dry blotting was described before. After blocking with 5% skim milk in TBS, the blots were developed with the respective primary antibody followed by peroxidase conjugated secondary antibody and ECL detection. The isolation and characterization of soluble L1 from ascites fluid was described before. Briefly, the vesicle cleared ascites fluid from ovarian carcinoma patients was adsorbed to Sepharoselinked mAb L1-11A and bound L1 was eluted with 0.1 M Glycin/HCl buffer pH 2.8. Eluted fractions were neutralized and an aliquot of the samples was analyzed by SDS-PAGE. Cell pellets were lysed in lysis buffer (20 mM Tris/HCl pH 8.0 containing 1% Triton X-100, 150 mM NaCl, 1 mM PMSF), cleared by centrifugation and mixed with two fold-concentrated reducing SDS-sample buffer.
(§4) Transfection of siRNAs was described before. L1 (5′-AGGGAUGG-UGUCCACCUUCAAAUU-3′) siRNA (SEQ ID NO: 1) was synthesized by MWG-Biotech (Ebersberg, Germany). Cells were transfected with annealed siRNAs using Oligofectamine (Life Technologies) and analyzed after the indicated time points.

OVMz cells = experiment: Apoptosis by Nicoletti staining in siRNA transfected OVMz cells; type: cell-based; conditions: compared to control siRNA treated cells
Description: (§5) Cells (1×10^5 cells per well) were cultured in duplicate in 6 well culture plates and, after washing once with PBS, incubated for the indicated timepoints with or without apoptotic stimuli in serum-free medium. Staurosporine (2 μM), C2-ceramide (40 μM) or cisplatin (17 μM) were used as apoptotic reagents. For hypoxia studies, cells were incubated for different time points under hypoxic conditions (1% O2) using a Reming Bioinstruments chamber and oxygen regulator (Reming Bioinstruments, Redfield, N.Y.).
as §1, §4

HEK293-hL1wt cells = experiment: Haptotactic cell migration on fibronectin, HEK293-hL1wt; type: cell-based, human; conditions: MEK inhibitor at 20 μM
Description: (A) L1 processing and cleavage in transfected HEK293 cells. The cell lysates were analyzed by Western blot with pcyt-L1 recognizing the cytoplasmic portion of L1. The nomenclature of L1-cleavage fragments is according to a previous publication (Mechtersheimer et al, 2001). (B) ELISA analysis. Soluble L1 levels in the medium of HEK293-hL1wt or HEK293-hL1mutTS cells treated with or without PMA stimulation for 1 h at 37° C. was analyzed. Lysates from both cell lines were used as positive controls. (C) Stimulation of cell migration on fibronectin by recombinant L1-Fc. The fusion protein was added at the final concentration of 0.6 μg/ml. […] (E) Phosphorylation of ERK1/2, FAK, PAK 1 and Src was analyzed in HEK293, HEK293-hL1wt and HEK293-hL1mutTS cells grown in serum. […] Labelled proteins were detected by autoradiography.
(A) HEK293 cells or HEK293-hL1wt cells were transfected transiently with plasmids (10 μg DNA) encoding hL1mut, dominant-negative ADAM10 (ADAM10-DN) or empty pcDNA3 vector. […] 48 h after transfection, cells were analyzed for haptotactic cell migration on fibronectin. […] 48 h after transduction with hL1wt or hL1mutTS adenovirus or YFP-TM adenovirus for control, KS cells or the L1 positive ovarian carcinoma cells OVMz, SKOV3ip and MO68 were analyzed for haptotactic cell migration on fibronectin as described in the legend to FIG. 1. […]

HEK293-hL1 cells [2] = experiment: Induction of apoptosis, Nicoletti staining, in HEK293-hL1 cells; type: cell-based, human; conditions: L1 positive cells; cisplatin 17 μM
Description: as §5, §1

HEK293 cells [3] = experiment: Induction of apoptosis, Nicoletti staining, in HEK293 cells; type: cell-based, human; conditions: L1-negative cells; cisplatin 17 μM
Description: as §5, §1

m130 cells = experiment: Long-term cisplatin treatment of m130 cells; type: cell-based
Description: (A) Light microscopy of cisplatin treated and no-treated m130 cells. Note the more elongated morphology after treatment for 3 weeks. The bar represents 10 μm. (B) FACS analysis of cisplatin treated m130 cells with mAb L1-11A against human L1-CAM. The analysis was carried out as described in FIG. 1. (C) Western blot analysis of cell lysate from cisplatin treated on non-treated m130 cells. (D) FACS analysis of cisplatin treated SW707 colon carcinoma cells with mAb L1-11A against human L1-CAM.
We studied whether long-term cisplatin treatment of L1-negative m130 cells would augment L1 expression. M130 cells were treated cells with increasing amounts of cisplatin over a time period of 3 weeks (10 μM first week, 15 μM second week, 20 μM third week).

OVMz = conditions: L1 high expressing cell line OVMz; previous work [29]; read-out: IC50 for cisplatin; cited from earlier work
m130 = conditions: L1 negative cell line m130; previous work [29]; read-out: IC50 for cisplatin; cited from earlier work
HEK293 cells [4] = experiment: Soluble L1 rescue from staurosporine induced apoptosis, HEK293; type: cell-based, human; conditions: staurosporine 12 hours, purified soluble L1 10 μg/ml
Description: (§6) (A) HEK293 and HEK293-hL1 cells were treated with staurosporine for the indicated length of time in the presence or absence of purified soluble L1 (10 μg/ml). Cell survival was determined by Nicoletti staining. (B) Analysis of FAK phosphorylation in HEK293 cells after the addition of soluble L1.
as §5
(§7) For quantification of DNA fragmentation, supernatants were centrifuged at 200×g. […] The nuclei were then analyzed for DNA content by flow cytometry. […] Cells were analysed with a FACScan using Cellquest or FlowJo software from Becton Dickinson (Heidelberg, Germany).
as §2

HEK293-hL1 cells [5] = experiment: Soluble L1 rescue from staurosporine induced apoptosis, HEK293-hL1; type: cell-based, human; conditions: staurosporine 12 hours, purified soluble L1 10 μg/ml
Description: as §6, §5, §7, §2

FAK phosphorylation = FAK phosphorylation in HEK293 cells after addition of soluble L1; type: cell-based, human; conditions: addition of soluble L1 to HEK293 cells
Description: as §6, §3

**Q.** What does the source list for “L1-specific siRNA: L1 siRNA 5′-AGGGAUGG-UGUCCACCUUCAAAUU-3′ (SEQ ID NO: 1), synthesized by MWG-Biotech”?
**A.** L1 expression at the cell surface (L1): downregulation of L1 expression at the cell surface; phosphorylation of ERK and FAK [1]: no significant reduction; sensitivity to apoptosis induced by cisplatin or staurosporine (OVMz cells): significantly enhanced

**Q.** Which cell migration (HEK293-hL1wt cells) does the source give for `COc1cccc(-c2cc(=O)c3ccccc3o2)c1N` [PD59098] here?
**A.** The cell migration was “Inhibition of cell migration was also observed”.

**Q.** For `N.N.[Cl][Pt][Cl]` [cisplatin, cis-Diammineplatinum(II) dichloride], which “cells survived the treatment with cisplatin” value (HEK293-hL1 cells [2]) is on record?
**A.** Its value is “Approximately 70%”.

**Q.** And the “cells survived the treatment with cisplatin” value (HEK293 cells [3])?
**A.** Its value is 40%.

**Q.** And the “expression of L1” value (m130 cells; cisplatin 3 weeks (10, 15, 20 μM), FACS and Western Blot)?
**A.** Its value is “strongly enhanced”.

**Q.** And the cell proliferation (m130 cells; long-term cisplatin treatment, data not shown)?
**A.** The cell proliferation was “clearly decreased cell proliferation”.

**Q.** What about the IC50 (OVMz) of the same molecule?
**A.** The IC50 was > 14 µM.

**Q.** What about the IC50 (m130) of the same molecule?
**A.** The IC50 was 7 µM.

B1: soluble L1: soluble L1 ectodomain isolated from ascites fluid of ovarian carcinoma patients (protein, UniProt P32004 20-1120, looked up)
extracellular domain: IQIPEEYEGHHVMEPPVITEQSPRRLVVFPTDDISLKCEASGKPEVQFRWTRDGVHFKPKEELGVTVYQSPHSGSFTITGNNSNFAQRFQGIYRCFASNKLGTAMSHEIRLMAEGAPKWPKETVKPVEVEEGESVVLPCNPPPSAEPLRIYWMNSKILHIKQDERVTMGQNGNLYFANVLTSDNHSDYICHAHFPGTRTIIQKEPIDLRVKATNSMIDRKPRLLFPTNSSSHLVALQGQPLVLECIAEGFPTPTIKWLRPSGPMPADRVTYQNHNKTLQLLKVGEEDDGEYRCLAENSLGSARHAYYVTVEAAPYWLHKPQSHLYGPGETARLDCQVQGRPQPEVTWRINGIPVEELAKDQKYRIQRGALILSNVQPSDTMVTQCEARNRHGLLLANAYIYVVQLPAKILTADNQTYMAVQGSTAYLLCKAFGAPVPSVQWLDEDGTTVLQDERFFPYANGTLGIRDLQANDTGRYFCLAANDQNNVTIMANLKVKDATQITQGPRSTIEKKGSRVTFTCQASFDPSLQPSITWRGDGRDLQELGDSDKYFIEDGRLVIHSLDYSDQGNYSCVASTELDVVESRAQLLVVGSPGPVPRLVLSDLHLLTQSQVRVSWSPAEDHNAPIEKYDIEFEDKEMAPEKWYSLGKVPGNQTSTTLKLSPYVHYTFRVTAINKYGPGEPSPVSETVVTPEAAPEKNPVDVKGEGNETTNMVITWKPLRWMDWNAPQVQYRVQWRPQGTRGPWQEQIVSDPFLVVSNTSTFVPYEIKVQAVNSQGKGPEPQVTIGYSGEDYPQAIPELEGIEILNSSAVLVKWRPVDLAQVKGHLRGYNVTYWREGSQRKHSKRHIHKDHVVVPANTTSVILSGLRPYSSYHLEVQAFNGRGSGPASEFTFSTPEGVPGHPEALHLECQSNTSLLLRWQPPLSHNGVLTGYVLSYHPLDEGGKGQLSFNLRDPELRTHNLTDLSPHLRYRFQLQATTKEGPGEAIVREGGTMALSGISDFGNISATAGENYSVVSWVPKEGQCNFRFHILFKALGEEKGGASLSPQYVSYNQSSYTQWDLQPDTDYEIHLFKERMFRHQMAVKTNGTGRVRLPPAGFATE
modifications: extracellular domain
notes: soluble L1 ectodomain isolated from ascites fluid of ovarian carcinoma patients
**Q.** Which cell survival (HEK293 cells [4]) does the source give for B1 here?
**A.** The cell survival was “enhanced survival of both cell lines to a similar degree; also recorded: only partially rescue HEK293 cells from apoptosis”.

**Q.** What about the cell survival (HEK293-hL1 cells [5]) of the same molecule?
**A.** Its cell survival is “enhanced survival of both cell lines to a similar degree”.

**Q.** What about the FAK phosphorylation (FAK phosphorylation) of the same molecule?
**A.** The FAK phosphorylation was “enhanced FAK phosphorylation”.
